The record followed here is publication PMC548510, “Inhibition of early steps in the lentiviral replication cycle by cathelicidin host defense peptides” (Retrovirology, 2005).

Like-named read-outs stand apart in the source and are kept apart here.

Series [1] has as its system retroviral vector (pRV-172) containing the amphotropic MLV Env. Type of series: cell-based.
For series [2], the system named is E. faecalis. As to the kind of experiment: radial diffusion assay (growth inhibition). Type of series: cell-based, Enterococcus faecalis (ATCC 29212). The note with it: 1% agarose underlay, 10 mM sodium phosphate, 100 mM NaCl, pH 7.4, 3 individual experiments, quadruplicates.
The subject of series [3] is VSV-G pseudotyped lentiviral vector VLΔBH.
Series [4] concerns HIV vectors containing the HIV-1 envelope. Also noted: IC50, HIV-1 Env mediated vector entry, as printed in the picture of Figure 6 A, B: unit not given beside the values.
The test system of series [5] is wild type HIV-1. Also noted: IC50, wild type HIV-1 infection, as printed in the picture of Figure 6 C, D: unit not given beside the values. The note with it: for IC50, wild type HIV-1 infection, as printed in the picture of Figure 6 C, D: P4CCR5 indicator cells, virus titer.
Series [6] has as its system A. baumanii. The series is described as follows: radial diffusion assay (growth inhibition). The note with it: 1% agarose underlay, 10 mM sodium phosphate, 100 mM NaCl, pH 7.4, 3 individual experiments, quadruplicates, > 128 = not susceptible. In kind it is cell-based, Acinetobacter baumannii (ATCC 19606).
The test system of series [7] is S. epidermidis. As to the kind of experiment: radial diffusion assay (growth inhibition). In kind it is cell-based, Staphylococcus epidermidis (ATCC 12228). The settings on record: 1% agarose underlay, 10 mM sodium phosphate, 100 mM NaCl, pH 7.4, 3 individual experiments, quadruplicates.
The test system of series [8] is E. coli. Type of series: cell-based, Escherichia coli (ATCC 25922). The settings on record: radial diffusion, 1% agarose underlay, 10 mM sodium phosphate, 100 mM NaCl, pH 7.4, 3 individual experiments, quadruplicates.
For series [9], the system named is S. aureus. Type of series: cell-based, Staphylococcus aureus (ATCC 25923). The note with it: radial diffusion, 1% agarose underlay, 10 mM sodium phosphate, 100 mM NaCl, pH 7.4, 3 individual experiments, quadruplicates.
Series [10] concerns P4CCR5 cells. The series is described as follows: BrdU incorporation cell proliferation assay. In kind it is cell-based. The procedure: 293-Luc cells were plated in 96 well plates at a density of 2 × 10^3 cells / well. After 48 hours, 50 μl of MTT-solution (3 mg/ml) was added and incubated at 37° C under 5% CO2 for 1 hour. After this time medium was removed and 100 μl 0.04 N HCL + 10% SDS was used to dissolve the resulting blue formazan crystals in living cells. The optical density was determined at 550 nm. Each single value of the triplicates was expressed as percent of the mean of triplicates of control cultures infected with the same vector in the absence of HDPs and the mean and the standard deviation of the percent values was calculated for each triplicate. In addition the BrdU Cell proliferation ELISA with chemiluminescence detection (Roche Diagnostics GmbH, Mannheim, Germany) was performed. After 293-Luc cells or P4CCR5 cells were plated in 96 well plates at a density of 2 × 10^3 cells/well BrdU (5-bromo-2'-deoxyuridine) was added to the cells with a resulting concentration of 10 μM for the last 22 h of the incubation period. After removing the culture medium, the cells were fixed and DNA was denatured in one step with Fixdenat. Thereafter the cells were incubated with Anti-BrdU-POD for 1 h at room temperature. The chemiluminescence detection was measured after automatic injection of substrate solution with a microplate-luminometer (Orion, Berthold detection systems, Pforzheim, Germany).
To determine the effect of HDPs on vector infectivity and cell metabolism, 293A target cells were plated in triplicates into 96-well plates at 2 × 10^3 cells / well. […] The affect of HDPs on cell metabolism was determined in parallel by plating 293-Luc cells exactly the same way as 293A cells and the luciferase activity was determined after one (as a control to inhibition of adenoviral vector infectivity) or two (as a control of lentiviral infectivity) days of incubation with HDPs. For GFP-expressing vectors, vector titers were calculated from the number of GFP positive cells per well as previously described and the BrdU incorporation assay was used to monitor cytotoxic effects.
Background: Incorporation of labelled thymidine or its analogues reports DNA synthesis.

The subject of series [11] is P. aeruginosa. The series is described as follows: radial diffusion assay (growth inhibition). In kind it is cell-based, Pseudomonas aeruginosa (ATCC 27853). The settings on record: 1% agarose underlay, 10 mM sodium phosphate, 100 mM NaCl, pH 7.4, 3 individual experiments, quadruplicates, > 128 = not susceptible.

Regarding `CC[C@H](C)[C@H](NC(=O)[C@H](CCCCN)NC(=O)[C@H](CCC(=O)O)NC(=O)[C@H](CCCCN)NC(=O)[C@H](CO)NC(=O)[C@H](CCCCN)NC(=O)[C@H](CCCNC(=N)N)NC(=O)[C@H](Cc1ccccc1)NC(=O)[C@H](Cc1ccccc1)NC(=O)[C@H](CC(=O)O)NC(=O)CNC(=O)[C@H](CC(C)C)NC(=O)[C@@H](N)CC(C)C)C(=O)NCC(=O)N[C@@H](CCCCN)C(=O)N[C@@H](CCC(=O)O)C(=O)N[C@@H](Cc1ccccc1)C(=O)N[C@@H](CCCCN)C(=O)N[C@@H](CCCNC(=N)N)C(=O)N[C@H](C(=O)N[C@H](C(=O)N[C@@H](CCC(N)=O)C(=O)N[C@@H](CCCNC(=N)N)C(=O)N[C@H](C(=O)N[C@@H](CCCCN)C(=O)N[C@@H](CC(=O)O)C(=O)N[C@@H](Cc1ccccc1)C(=O)N[C@@H](CC(C)C)C(=O)N[C@@H](CCCNC(=N)N)C(=O)N[C@@H](CC(N)=O)C(=O)N[C@@H](CC(C)C)C(=O)N[C@H](C(=O)N1CCC[C@H]1C(=O)N[C@@H](CCCNC(=N)N)C(=O)N[C@H](C(=O)N[C@@H](CCC(=O)O)C(=O)N[C@@H](CO)C(=O)O)[C@@H](C)O)C(C)C)[C@@H](C)CC)C(C)C)[C@@H](C)CC` [LL37], the “dose dependent reduction in luciferase activity, MLV vector compared with lentiviral vector” value in series [1] (293A cells, triplicates of two independent experiments) is listed as “very similar”. Further, the “M E C (minimal effectory concentration)” value in series [2] is 13,61 ± 0,7 μg/ ml; in series [6], 13,13 ± 0,2 μg/ ml; in [7] it was 13,09 ± 0,6 μg/ ml; in [8], 11,66 ± 1,5 μg/ ml; in [9], 4,74 ± 0,1 μg/ ml. Also, the “50% inhibitory concentration (IC50) for the VLΔBH lentiviral vector” value in series [3] was “approximately 30 μg/ml”. Further, the “specific inhibition of early steps of infection (lentiviral vector versus stably transduced target cells)” value in [3] was “Specific inhibition”. Besides, the “IC50, HIV-1 Env mediated vector entry, as printed in the picture of Figure 6 A, B” value in [4] (P4CCR5 cells, GFP vector titer) is given as 25.1. Moreover, in [4] (vectors containing the envelope), the “IC50, inhibition of HIV vectors containing the HIV-1 envelope” value was 25 µg/mL. Moreover, the “IC50, wild type HIV-1 infection, as printed in the picture of Figure 6 C, D” value in series [5] stood at 87.8. The “inhibitory effects on cell proliferation at the IC50 concentrations (25 μg/ml LL37, 14 μg/ml PG-1)” value in [10] is reported as “only minimal inhibitory effects”.

For `CC1(C)S[C@@H]2[C@H](NC(=O)[C@H](N)c3ccccc3)C(=O)N2[C@H]1C(=O)O` [Ampicillin], the “M E C (minimal effectory concentration)” value in [2] is 28,85 ± 0,6 μg/ ml; in [8], 18,9 ± 0,9 μg/ ml; in [9] it was 10,50 ± 0,2 μg/ ml.

Turning to `CC(C)C[C@H](NC(=O)[C@H](CCCNC(=N)N)NC(=O)CNC(=O)CNC(=O)[C@@H](N)CCCNC(=N)N)C(=O)N[C@H]1CSSC[C@@H](C(=O)N[C@H](C(=O)NCC(=O)N[C@@H](CCCNC(=N)N)C(N)=O)C(C)C)NC(=O)[C@H](C(C)C)NC(=O)[C@@H]2CSSC[C@H](NC(=O)[C@H](Cc3ccc(O)cc3)NC1=O)C(=O)N[C@@H](CCCNC(=N)N)C(=O)N[C@@H](CCCNC(=N)N)C(=O)N[C@@H](CCCNC(=N)N)C(=O)N[C@@H](Cc1ccccc1)C(=O)N2` [Protegrin-1], the “dose dependent reduction in luciferase activity, MLV vector compared with lentiviral vector” value in series [1] was “very similar”. Besides, the “M E C (minimal effectory concentration)” value in [2] is 4,46 ± 0,3 μg/ ml; in series [6], 5,01 ± 0,2 μg/ ml; in series [7] it was 4,48 ± 0,2 μg/ ml; in series [11] it was 3,3 ± 1,1 μg/ ml; in series [8] it was 2 ± 0,1 μg/ ml; in series [9], 0,91 ± 0,04 μg/ ml. For the same molecule, the “50% inhibitory concentration (IC50) for the VLΔBH lentiviral vector” value in [3] is ~16.8 µg/mL. In series [3], the “specific inhibition of early steps of infection (lentiviral vector versus stably transduced target cells)” value is listed as “Specific inhibition”. Also, the “IC50, HIV-1 Env mediated vector entry, as printed in the picture of Figure 6 A, B” value in [4] is 14.3. Moreover, the “IC50, wild type HIV-1 infection, as printed in the picture of Figure 6 C, D” value in series [5] came to 7.2. The “IC50 against wild type HIV-1” value in series [5] (wild type) is reported as “below 10 μg/ml”. Besides, the “concentration up to which inhibitory effects on cell proliferation were not observed” value in [10] is > 50 µg/mL. For the same molecule, the “inhibitory effects on cell proliferation at the IC50 concentrations (25 μg/ml LL37, 14 μg/ml PG-1)” value in series [10] is “only minimal inhibitory effects”.

As for Plectasin, the “M E C (minimal effectory concentration)” value in series [2] is 10,60 ± 0,7 μg/ ml; in [6], > 128 µg/mL; in series [7], 8,20 ± 0,5 μg/ ml; in series [11], > 128 µg/mL; in [8] it was 79,10 ± 0,3 μg/ ml; in series [9], 2,42 ± 0,4 μg/ ml.
